For four compounds, IC50 and GI50 results are on record in ChEMBL document CHEMBL1130905, “Asymmetric synthesis of antimitotic combretadioxolane with potent antitumor activity against multi-drug resistant cells” (Bioorg Med Chem Lett, 1998).

In assay [1] the target is T1, Tubulin (Sus scrofa, UniProt P02554+P02550). Put plainly: In vitro tubulin polymerization-inhibitory activity. The class given is protein assay.
The test system of a further assay is PC-12. Briefly: Compound was evaluated for in vitro growth inhibition activity against multi drug resistant (MDR) PC-12 cell line. The class given is functional. The settings on record: Rattus norvegicus.
Assay [2] addresses T1, Tubulin. Put plainly: In vitro tubulin polymerization-inhibitory activity; 4-6. The class given is protein assay.
The test system of another assay is PC-6. Briefly: Compound was evaluated for in vitro growth inhibition activity against sensitive PC-6 cell line. The class given is functional, Rattus norvegicus.

For `COc1ccc([C@H]2OCO[C@@H]2c2cc(OC)c(OC)c(OC)c2)cc1O`, the IC50 – broadly, the point on the concentration scale where inhibition reaches its midpoint – against Tubulin [1] is above 50000 nM.
With `COc1ccc([C@@H]2OCO[C@H]2c2cc(OC)c(OC)c(OC)c2)cc1O`, the concentration for 50% growth inhibition (GI50) (as a rule, the concentration that inhibits growth by half) with PC-12 turned out to be 5.19 nM; in the assay on PC-6 (Homo sapiens), 5.41 nM. Also, at Tubulin [2], the IC50 was found to be 4000 nM.
With `CC[C@]1(O)C[C@H]2CN(CCc3c([nH]c4ccccc34)[C@@](C(=O)OC)(c3cc4c(cc3OC)N(C=O)[C@H]3[C@@](O)(C(=O)OC)[C@H](OC(C)=O)[C@]5(CC)C=CCN6CC[C@]43[C@@H]65)C2)C1` [VINCRISTINE], the concentration for 50% growth inhibition (GI50) in the assay with PC-12 worked out at 104 nM; in the assay with PC-6 (Homo sapiens), 1.14 nM.
For the compound CISPLATIN, the GI50 in the assay with PC-12 stood at 300 nM; with PC-6 (Rattus norvegicus), 563 nM.
